Source: patent publication EP0866074A1, “NOVEL NK374186 ANALOGUES OR PHARMACOLOGICALLY ACCEPTABLE SALTS THEREOF” (NIPPON KAYAKU KABUSHIKI KAISHA, priority 1995, dated 1996)
≈ marks a conversion by molar mass, not a printed value.

Assays:
[1] = system: cell line A2780 derived from human ovarian cancer; test: Suppression of cancer cell proliferation (MTT method); format: cell-based
Protocol: Cells were cultured in an RPMI culture medium supplemented with 10 % calf fetus serum in the presence of 5 % CO2 at 37 °C. The cells were inoculated and cultured in a 96-well plate for one day, followed by addition of one of the pharmaceutical compounds. The cells were treated with the compounds for 3 days, and the effects were assessed by the proliferation-suppressed MTT method. The activities of the compounds on the suppression of the proliferation of Cancer cells are shown below. The cancer cells were of a cell line A2780 derived from human ovarian cancer.

graft vs host reaction = test: Graft vs host reaction (GVH), spleen weight method; format: in vivo, mouse; details: for Spleen weight/body weight: spleen weighed 7 days after transplantation, BDF mouse; for Index: relative to Untreated = 1.00
Protocol: The spleen weight method by Fords, et al. [W.L. Ford et al., Handbook of Experimental Immunology 30, D.M. Weir, ed., Blackwell Scientific Publications, 1978, pp. 1] was followed. Spleen cells of 5×10^6, separated from a C57BL/6 mouse (8 weeks of age, male) as a donor, were transplanted peritoneally in a BDF mouse (7 weeks of age, male) as a recipient. Simultaneously, NK374186, a control agent or a solvent control (0.25 % gum arabic) was injected subcutaneously in the dorsal skin of the BDF mouse. The NK374186 and the control agent were preliminarily dissolved in 0.25 % gum arabic. Furthermore, on day 1 and day 2, the same administration was conducted, and 7 days after the transplantation, the spleen was weighed.

Human peripheral T cells = test: Blastoid transformation via OKT-3 (3H-thymidine incorporation); format: cell-based; details: 2 ng/ml OKT-3 antibody, 72-hr cultivation
Protocol: For cultivation, RPMI 1640 medium supplemented with 10 % calf fetus serum, 25 mM HEPS buffer, 100 µg/ml streptomycin […] and 100 units/ml penicillin G in a 96-well flat-bottom microplate (coaster) was used. As a mitogen, 2 ng/ml OKT-3 antibody was used.
Human peripheral T cells Were collected from blood drawn with heparin by the density-gradient centrifugation method. 200,000 cells and test compounds at individual concentrations were added to each well to a total volume of 0.2 ml, for 72-hr cultivation. Eight hours before termination of the cultivation, 37 kBq ^3H - thymidine was added to determine the incorporation thereof into the cells. The effects were evaluated on the basis of the ratio of the incorporated ^3H - thymidine in the groups with addition of the test compounds to the incorporated ^3H - thymidine in the control group (Japanese Immunology Association, Methods for Experiment Immunology, pp. 2267 - 2276).

IC50 ([1]; Homo sapiens, 72 h, A2780 cells, treated for 3 days, MTT method): 33 µg/mL (≈ 44.8 µM)
Structure (SMILES): CCCCCCCCCCCCCC1OC(=O)C(COC(C)=O)NC(=O)C(C(C)OP(=O)(O)O)NC(=O)C(C(C)C)NC(=O)C(C)C(O)C1C (stereo not shown) [NK374186P]
activities on the suppression of the proliferation of the cancer cells ([1]; result in words, summary of Table 1): have activities on the suppression of the proliferation of the cancer cells
Spleen weight/body weight (graft vs host reaction; Dose 0.5 mg/kg subcutaneously on day 0, 1 and 2): 10.01 X10^-3
Index (graft vs host reaction; Dose 0.5 mg/kg): 2.07
Spleen weight/body weight (graft vs host reaction; Dose 5.0 mg/kg subcutaneously on day 0, 1 and 2): 11.45 X10^-3
Index (graft vs host reaction; Dose 5.0 mg/kg): 2.37
Spleen weight/body weight (graft vs host reaction; Dose 50.0 mg/kg subcutaneously on day 0, 1 and 2): 12.00 X10^-3
Index (graft vs host reaction; Dose 50.0 mg/kg): 2.48
effect on GVH (graft vs host reaction; result in words, summary of Table 3, ratio of spleen weight to body weight increases depending on the dose): significant GVH suppression
ratio of the incorporated 3H-thymidine in the groups with addition of the test compounds to the control group (Human peripheral T cells; Concentration 0.03 (unit not given)): 99.6
ratio of the incorporated 3H-thymidine in the groups with addition of the test compounds to the control group (Human peripheral T cells; Concentration 0.1 (unit not given)): 100.6
ratio of the incorporated 3H-thymidine in the groups with addition of the test compounds to the control group (Human peripheral T cells; Concentration 0.3 (unit not given)): 102.6
ratio of the incorporated 3H-thymidine in the groups with addition of the test compounds to the control group (Human peripheral T cells; Concentration 1.0 (unit not given)): 119.7
ratio of the incorporated 3H-thymidine in the groups with addition of the test compounds to the control group (Human peripheral T cells; Concentration 3.0 (unit not given)): 131.4
ratio of the incorporated 3H-thymidine in the groups with addition of the test compounds to the control group (Human peripheral T cells; Concentration 10.0 (unit not given)): 97.7
ratio of the incorporated 3H-thymidine in the groups with addition of the test compounds to the control group (Human peripheral T cells; Concentration 30.0 (unit not given)): 69.3
